For this series, the system named is rodent carcinogenicity bioassays, tumor incidence. Briefly: CCRIS carcinogenicity studies. An outline of the steps: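 NCI-built, expert-reviewed records of carcinogenicity and related test outcomes (mutagenicity, tumor promotion/inhibition) compiled from published and report sources, historical span 1985-2011, not updated.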

Calls of active or inactive are those of the source. The rule behind the calls is not given here.

As to `O=CCCCC=O`, the carcinogen call by setting is: (Species: MOUSE, Strain/Sex: B6C3F1/FEMALE, Route: INHALATION, Dose: 0, 62.5, 125, 250 PPM 6 HR/D 5 D/WK FOR 104 WK (STUDY DURATION: 104 WK), Dose: 0, 62.5, 125, 250 PPM 6 HR/D 5 D/WK FOR 104 WK (STUDY DURATION: 104 WK)) “inactive; negative”; (Species: MOUSE, Strain/Sex: B6C3F1/FEMALE, Route: INHALATION, Dose: 0, 100 PPB 6 HR/D 5 D/WK FOR 52 OR 78 WK (STUDY DURATION: 78 WK)) “inactive; negative”; (Species: MOUSE, Strain/Sex: B6C3F1/MALE, Route: INHALATION, Dose: 0, 62.5, 125, 250 PPM 6 HR/D 5 D/WK FOR 104 WK (STUDY DURATION: 104 WK), Dose: 0, 62.5, 125, 250 PPM 6 HR/D 5 D/WK FOR 104 WK (STUDY DURATION: 104 WK)) “inactive; negative”; (Species: MOUSE, Strain/Sex: B6C3F1/MALE, Route: INHALATION, Dose: 0, 100 PPB 6 HR/D 5 D/WK FOR 52 OR 78 WK (STUDY DURATION: 78 WK)) “inactive; negative”; (Species: RAT, Strain/Sex: F344/FEMALE, Route: ORAL, Dose: 0, 50, 250, 1000 PPM IN DRINKING WATER FOR 104 WK (STUDY DURATION: 104 WK), Dose: 0, 50, 250, 1000 PPM IN DRINKING WATER FOR 104 WK (STUDY DURATION: 104 WK)) “inactive; negative”; (Species: RAT, Strain/Sex: F344/MALE, Route: ORAL, Dose: 0, 50, 250, 1000 PPM IN DRINKING WATER FOR 104 WK (STUDY DURATION: 104 WK), Dose: 0, 50, 250, 1000 PPM IN DRINKING WATER FOR 104 WK (STUDY DURATION: 104 WK)) “inactive; negative”. For the same molecule, the carcinogen call (Species: RAT, Strain/Sex: F344/N/FEMALE, Route: INHALATION, Dose: 0, 250, 500, 750 PPM 6 HR/D 5 D/WK FOR 104 WK (STUDY DURATION: 104 WK), Dose: 0, 250, 500, 750 PPM 6 HR/D 5 D/WK FOR 104 WK (STUDY DURATION: 104 WK)) is “inactive; negative”; the carcinogen call (Species: RAT, Strain/Sex: F344/N/MALE, Route: INHALATION, Dose: 0, 250, 500, 750 PPM 6 HR/D 5 D/WK FOR 104 WK (STUDY DURATION: 104 WK), Dose: 0, 250, 500, 750 PPM 6 HR/D 5 D/WK FOR 104 WK (STUDY DURATION: 104 WK)) was “inactive; negative”; the carcinogen call (Species: Rat, Strain/Sex: Fischer 344/Female (80/Group), Route: Oral, Dose: 0, 50, 250, 1000 ppm (0; 5.5; 25.1; 85.9 mg/kg/d) in drinking water for 104 wk, study duration 104 wk, Dose: 0, 50, 250, 1000 ppm (0; 5.5; 25.1; 85.9 mg/kg/d) in drinking water for 104 wk, study duration 104 wk, Tumor Site: Type of Lesion: Large granular lymphocyte leukemia (24, 41, 41, 53/100 animals)) was “active; positive”; the carcinogen call (Species: Rat, Strain/Sex: Fischer 344/Male (80/Group), Route: Oral, Dose: 0, 50, 250, 1000 ppm (0; 3.6; 17.1; 63.9 mg/kg/d) in drinking water for 104 wk, study duration 104 wk, Dose: 0, 50, 250, 1000 ppm (0; 3.6; 17.1; 63.9 mg/kg/d) in drinking water for 104 wk, study duration 104 wk) is “inactive; negative”.
As for `Clc1c(Cl)c(Cl)c(Cl)c(Cl)c1Cl`, the carcinogen call reads like this: (Species: HAMSTER, Route: ORAL, Tumor Site: Type of Lesion: THYROID GLAND, LIVER) “active; positive”; (Species: MOUSE, Route: ORAL, Tumor Site: Type of Lesion: LIVER) “active; positive”; (Species: RAT, Strain/Sex: F344/FEMALE, Route: ORAL, Dose: 0, 0.02% IN DIET FOR 30 WK (STUDY DURATION: 35 WK)) “inactive; negative”; (Species: RAT, Strain/Sex: F344/FEMALE, Route: ORAL, Dose: 0, 0.02% OF DIET FOR 90 WK (STUDY DURATION: 90 WK), Tumor Site: Type of Lesion: LIVER: HEPATOCELLULAR CARCINOMA OR NEOPLASTIC NODULE) “active; positive”; (Species: RAT, Strain/Sex: F344/MALE, Route: ORAL, Dose: 0, 0.02% IN DIET FOR 30 WK (STUDY DURATION: 35 WK)) “inactive; negative”; (Species: RAT, Strain/Sex: F344/MALE, Route: ORAL, Dose: 0, 0.02% OF DIET FOR 90 WK (STUDY DURATION: 90 WK)) “inactive; negative”.
Take `O=C(O)COc1ccc(Cl)cc1Cl` (tested in a mixture with another compound): the carcinogen call by setting is: (Species: MOUSE, Strain/Sex: B6C3F1/FEMALE, Route: DERMAL, Dose: 0, 100, 200 MG/KG BW IN ETHANOL 5/WK FOR 104 WK (STUDY DURATION: 104 WK), Dose: 0, 100, 200 MG/KG BW IN ETHANOL 5/WK FOR 104 WK (STUDY DURATION: 104 WK), Tumor Site: Type of Lesion: LIVER: HEPATOCELLULAR ADENOMA, HEPATOCELLULAR CARCINOMA, HEPATOCELLULAR ADENOMA OR CARCINOMA OR HEPATOBLASTOMA) “active; positive”; (Species: MOUSE, Strain/Sex: B6C3F1/MALE, Route: DERMAL, Dose: 0, 100, 200 MG/KG BW IN ETHANOL 5/WK FOR 104 WK (STUDY DURATION: 104 WK), Dose: 0, 100, 200 MG/KG BW IN ETHANOL 5/WK FOR 104 WK (STUDY DURATION: 104 WK), Tumor Site: Type of Lesion: KIDNEY: RENAL TUBULE ADENOMA, RENAL TUBULE ADENOMA OR CARCINOMA, LIVER: HEPATOCELLULAR ADENOMA, HEPATOCELLULAR CARCINOMA) “active; positive”; (Species: RAT, Strain/Sex: F344/FEMALE, Route: DERMAL, Dose: 0, 50, 100 MG/KG BW IN ETHANOL 5/WK FOR 104 WK (STUDY DURATION: 104 WK), Dose: 0, 50, 100 MG/KG BW IN ETHANOL 5/WK FOR 104 WK (STUDY DURATION: 104 WK), Tumor Site: Type of Lesion: KIDNEY: RENAL TUBULE ADENOMA OR CARCINOMA) “equivocal”; (Species: RAT, Strain/Sex: F344/MALE, Route: DERMAL, Dose: 0, 50, 100 MG/KG BW IN ETHANOL 5/WK FOR 104 WK (STUDY DURATION: 104 WK), Dose: 0, 50, 100 MG/KG BW IN ETHANOL 5/WK FOR 104 WK (STUDY DURATION: 104 WK)) “inactive; negative”.
As for `O=[N+]([O-])c1ccc(-c2cscn2)o1`, the carcinogen call (Species: RAT, Strain/Sex: SPRAGUE-DAWLEY/FEMALE, Route: ORAL, Dose: 0, 1540 PPM IN DIET FOR 46 WK (TOTAL DOSE: 42 MMOL/RAT) (STUDY DURATION: 68 WK), Tumor Site: Type of Lesion: MAMMARY GLAND: FIBROADENOMA, FORESTOMACH: SQUAMOUS CELL CARCINOMA) was “active; positive”.
For the molecule `NNCCc1ccccc1`, the carcinogen call (Species: MOUSE, Strain/Sex: SWISS/MALE, Route: ORAL, Dose: 0, 0.15% IN WATER, Tumor Site: Type of Lesion: BLOOD VESSELS: ANGIOMA, ANGIOSARCOMA, LUNG: ADENOMA, ADENOCARCINOMA) was “active; positive” and the carcinogen call (Species: RAT, Strain/Sex: SPRAGUE-DAWLEY/MALE, Route: ORAL, Dose: 0, 0.02% IN DIET FOR 68-87 WK (STUDY DURATION: 87 WK)) is “inactive; negative”.
Regarding `C#CC(C)(C)NC(=O)c1cc(Cl)cc(Cl)c1`, the carcinogen call (Species: MOUSE, Strain/Sex: B6C3F1/MALE, Route: ORAL, Dose: 0, 20, 100, 500, 2500 PPM IN DIET FOR 12, 18 OR 24 MO (STUDY DURATION: 24 MO), Dose: 0, 20, 100, 500, 2500 PPM IN DIET FOR 12, 18 OR 24 MO (STUDY DURATION: 24 MO), Tumor Site: Type of Lesion: LIVER: HEPATOCELLULAR CARCINOMA OR ADENOMA) is “active; positive”.
Take `C1CSCN1`: the carcinogen call (Species: MOUSE, Strain/Sex: CD-1/FEMALE, Route: DERMAL, Dose: 0, 50 UMOL/0.1 ML DMSO 2/WK FOR 5 WK FOLLOWED 1 WK LATER BY 0.1 ML ACETONE 2/WK FOR 47 WK (STUDY DURATION: 52 WK)) was “inactive; negative”.

For the origin of these results see PubChem BioAssay AID1259411 (Chemical Carcinogenesis Research Information System (CCRIS), 2018).
